From US20170319483A1, “METHOD FOR PRODUCING POROUS PARTICLE” (National Institute for Materials Science, priority 2014, published 2017)

Experiment: Theophylline release experiment in pH 7 phosphate buffer
Assay type: physicochemical
Conditions: FIG. 24
Procedure: First, the porous particles containing theophylline of Application Examples of 4-1 to 4-4 were dispersed in a phosphate buffer solution of pH 7 at 200 mg/100 mL.
Next, the solution was collected over time, filtered by a filter, and thereafter analyzed by high-performance liquid chromatography, and the concentration of theophylline in the solution was measured.

## Cn1c(=O)c2[nH]cnc2n(C)c1=O [theophylline alone, theophylline]
  Theophylline release / dissolution behaviour: whole amount was dissolved instantaneously
